Experimental data from PubChem BioAssay (NCI).
Where “and” joins values, the source holds several entries; their conditions need not be identical. Equal entries are not always repeated.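 Step 1: Grow cells in 96-well plates. Step 2: Expose to compound for 48 hours at 5 concentrations. Step 3: Interpolate endpoints linearly; if unreached, use highest concentration. Abbreviation: GI50, concentration required for 50% inhibition of growth. Definition used: TGI = concentration required for complete inhibition of growth.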

Experiments:
Test in all cases: inhibition of tumour cell growth, NCI panel, 48 h
ACHN renal = system: ACHN renal
CCRF-CEM leukemia = system: CCRF-CEM leukemia
EKVX NSCLC = system: EKVX NSCLC
HOP-62 NSCLC = system: HOP-62 NSCLC
RPMI-8226 leukemia = system: RPMI-8226 leukemia
SF-268 CNS = system: SF-268 CNS
SK-MEL-2 melanoma = system: SK-MEL-2 melanoma
SK-OV-3 ovarian = system: SK-OV-3 ovarian

Structure (SMILES)	GI50 (ACHN renal)	TGI (ACHN renal)	GI50 (CCRF-CEM leukemia)	TGI (CCRF-CEM leukemia)	GI50 (EKVX NSCLC)	TGI (EKVX NSCLC)	GI50 (HOP-62 NSCLC)	TGI (HOP-62 NSCLC)	GI50 (RPMI-8226 leukemia)	TGI (RPMI-8226 leukemia)	GI50 (SF-268 CNS)	TGI (SF-268 CNS)	GI50 (SK-MEL-2 melanoma)	TGI (SK-MEL-2 melanoma)	GI50 (SK-OV-3 ovarian)	TGI (SK-OV-3 ovarian)
Cn1ncc(Cl)c1-c1cc(C(=O)N[C@H](CN)Cc2cccc(F)c2)sc1Cl	2.57 µM and 2.76 µM	> 10 µM and 15.4 µM	0.349 µM and 0.294 µM	> 10 µM and 10.5 µM	3.24 µM	> 10 µM	1.11 µM and 3.13 µM	> 10 µM and 16.6 µM	1.65 µM and 2.06 µM	5.8 µM and 6.11 µM	1.72 µM and 3.64 µM	> 9.54 µM and 17.1 µM	1.98 µM and 4.65 µM	> 6.11 µM and 12.3 µM	0.242 µM and 0.34 µM	4.58 µM and 7.05 µM
COC[C@H](NC(=O)c1cnc(C)s1)C(=O)N[C@@H](COC)C(=O)N[C@@H](Cc1ccccc1)C(=O)[C@@]1(C)CO1	34.8 µM	> 100 µM	21.3 µM	> 100 µM	44.4 µM	> 100 µM	31.4 µM	> 95.4 µM	18.5 µM	> 100 µM	48.4 µM	> 100 µM	28.7 µM	> 91.6 µM	> 94.9 µM	> 100 µM
CC1(C)N=C(N)N=C(N)N1c1ccc(CNC(=O)Nc2ccc(S(=O)(=O)F)c(Cl)c2)c(Cl)c1	5.28 µM	> 100 µM	0.477 µM	> 100 µM	–	–	9.81 µM	> 100 µM	1.43 µM	> 100 µM	0.686 µM	> 100 µM	12.2 µM	> 74.9 µM	> 45 µM	> 100 µM
C[C@@H]1C[C@H](N)C[C@H](c2ccncc2NC(=O)c2ccc(F)c(-c3c(F)cccc3F)n2)C1	12.1 µM and > 10 µM	24.5 µM and > 10 µM	–	–	4.35 µM and > 10 µM	21.1 µM and > 10 µM	10.6 µM and > 10 µM	25.2 µM and > 10 µM	0.592 µM and 0.939 µM	11.4 µM and > 10 µM	10.8 µM and > 10 µM	25.3 µM and > 10 µM	17.1 µM and > 10 µM	34.8 µM and > 10 µM	12.7 µM and > 10 µM	26.8 µM and > 10 µM
CC1(C)Oc2ccc3ccc(=O)oc3c2C(O)C1O (centres undefined)	–	> 100 µM	–	96.9 µM	–	> 100 µM	–	> 100 µM	–	97.9 µM	–	> 100 µM	–	> 100 µM	–	–
CCC(CC)n1cnc2c(-c3cnc(N)cn3)nc(N3CC4CCC(C3)O4)nc21	0.324 µM	> 100 µM	0.443 µM	> 100 µM	–	–	1.08 µM	> 100 µM	0.102 µM	5.75 µM	0.566 µM	> 100 µM	0.391 µM	3.25 µM	0.142 µM	0.789 µM
Nc1ncc(-c2ccc3ncnc(Nc4cccc(Cl)c4)c3c2)cn1	0.0232 µM	–	1.85 µM	> 100 µM	–	–	0.388 µM and 2.98 µM	> 100 µM	0.206 µM	–	0.294 µM and 1.95 µM	> 100 µM	–	–	–	–
COc1ccc2c(c1)CCC1C2CC[C@@]2(C)C1CC[C@@H]2NC(=O)Cc1ccc(O)c(O)c1 (some centres undefined)	6.01 µM	18.9 µM	2.86 µM	17.6 µM	13.5 µM	31.4 µM	–	–	3.68 µM	> 100 µM	7.48 µM	25.3 µM	15.2 µM	33.8 µM	16.7 µM	33.4 µM
O=C1Nc2c(Cl)cc(Cl)cc2/C1=N/N=C/c1ccco1	–	> 100 µM	–	> 100 µM	–	84.9 µM	–	> 100 µM	–	–	–	–	–	57.1 µM	–	> 100 µM
Oc1ccccc1-c1nn(CNc2ccc(Cl)cc2)c(=S)o1	–	–	> 100 µM	> 100 µM	> 100 µM	> 100 µM	> 100 µM	> 100 µM	> 100 µM	> 100 µM	9.2 µM	> 100 µM	> 100 µM	> 100 µM	> 100 µM	> 100 µM
CC1=CCC2CC1C(C(=O)c1c[nH]c3ccccc13)=NC2(C)C (centres undefined)	–	> 100 µM	–	> 100 µM	–	> 100 µM	–	> 100 µM	–	> 100 µM	–	> 100 µM	–	–	–	> 100 µM
Cc1ccc(S(=O)(=O)ON2C(=O)c3cccc4cc([N+](=O)[O-])cc(c34)C2=O)cc1	–	> 100 µM	–	–	–	> 100 µM	–	> 100 µM	–	> 100 µM	–	> 100 µM	–	> 100 µM	–	> 100 µM
COc1ccc(Nc2nc(NCCNc3ccnc4cc(Cl)ccc34)nc(N3CCOCC3)n2)cc1	4.77 µM	18.1 µM	2.95 µM	15.4 µM	–	–	8.09 µM	21.6 µM	2.75 µM	13.1 µM	5.02 µM	19.5 µM	2.19 µM	4.28 µM	11.7 µM	24.6 µM
COc1ccc(-c2ncnc3c2ncn3CC#CCCl)cc1	3.62 µM	14.8 µM	3.84 µM	42.7 µM	12.8 µM	29.6 µM	1.79 µM	3.31 µM	3.46 µM	20 µM	1.66 µM	4.13 µM	–	–	10.5 µM	22.7 µM
CC1SC(c2ccccc2Cl)N(NC(=O)C(O)c2ccccc2)C1=O (centres undefined)	55.8 µM	> 100 µM	> 100 µM	> 100 µM	> 100 µM	> 100 µM	> 100 µM	> 100 µM	45 µM	> 100 µM	> 100 µM	> 100 µM	> 100 µM	> 100 µM	–	–
CC(C)(C)OC(=O)C1C(=O)NC(=O)CC1CC(OCc1ccccc1)C(OCc1ccccc1)C(COCc1ccccc1)OCc1ccccc1 (centres undefined)	60.2 µM and 18.8 µM	> 100 µM	60.6 µM and 11.8 µM	> 100 µM	62.2 µM and 12.6 µM	> 100 µM	> 100 µM and 34 µM	> 100 µM	21.5 µM and 7.16 µM	> 100 µM and 34.1 µM	46.8 µM and 16.1 µM	> 100 µM	–	–	–	–
Cc1cc(OCc2nnc3n2S(=O)(=O)c2ccccc2N3C)ccc1Cl	–	53 µM	–	38 µM	–	> 100 µM	–	29.7 µM	–	–	–	68 µM	–	> 100 µM	–	37.4 µM
C(=N\Nc1ncc(-c2cc3cc4c(cc3o2)OCO4)s1)/c1ccco1	1.85 µM	11.3 µM	0.551 µM	16.2 µM	2.25 µM	10.9 µM	3.04 µM	12.6 µM	3.08 µM	13.3 µM	2.67 µM	23.1 µM	3.11 µM	11.3 µM	–	–
NC(=S)N/N=C/c1ccc(OC(=O)COc2cc(Cl)c(Cl)cc2Cl)cn1	3.03 µM	> 100 µM	2.8 µM	> 100 µM	–	–	3.68 µM	38.4 µM	7.29 µM	> 100 µM	3.52 µM	43.6 µM	12.7 µM	> 100 µM	8.49 µM	> 100 µM
CCN1CCN(CCNc2nccc(-c3c(-c4ccc(F)c(O)c4)nc4occn34)n2)S1(=O)=O	3.44 µM	> 100 µM	2.2 µM	> 100 µM	6.81 µM	> 100 µM	5.97 µM	> 100 µM	–	–	4.84 µM	> 100 µM	3.98 µM	> 100 µM	12.9 µM	> 100 µM
COc1ccc2c(c1)c(-c1nc(-c3cn(C)c4ccncc34)cs1)cn2C	1.73 µM	3.11 µM	2.15 µM	6.05 µM	1.77 µM	3.56 µM	1.9 µM	3.62 µM	–	–	2.07 µM	4.4 µM	1.76 µM	3.28 µM	2.52 µM	5.12 µM
[N-]=[N+]=NCN1C(=O)C2C3C=CC(C2C1=O)C1C2C(=O)N(CN=[N+]=[N-])C(=O)C2C31 (centres undefined)	–	> 100 µM	–	–	–	> 100 µM	–	> 100 µM	–	> 100 µM	–	> 100 µM	–	> 100 µM	–	–
C=C(C)[C@@H]1CC[C@]2(CO)CC[C@]3(C)[C@H](CC[C@@H]4[C@@]5(C)CCCNC(C)(C)[C@@H]5CC[C@]43C)[C@@H]12	1.7 µM	3.09 µM	2.07 µM	4.91 µM	1.55 µM	3.03 µM	1.81 µM	3.42 µM	1.94 µM	4.51 µM	1.74 µM	3.54 µM	–	–	1.83 µM	3.49 µM
NC(=O)CC1OC(=O)Cc2cc3c(c(O)c21)C(=O)c1c(O)cccc1C3=O (centres undefined)	–	> 100 µM	–	> 100 µM	–	> 100 µM	–	–	–	–	–	–	–	> 100 µM	–	> 100 µM
COc1cc(-c2nn(-c3cccc(NC(=O)Nc4ccc(Cl)c(C(F)(F)F)c4)c3)cc2-c2ccncc2)ccc1Cl	1.1 µM	15.6 µM	0.979 µM	> 32.5 µM	–	–	1.31 µM	6.49 µM	0.868 µM	3.25 µM	1.46 µM	9.14 µM	1.01 µM	2.58 µM	1.45 µM	13 µM
Cc1c(Cn2c(C)nc3c(C(=O)O)cc(N4CCOCC4)cc32)cccc1C(F)(F)F	8.73 µM	> 100 µM	44.3 µM	> 100 µM	–	–	37.5 µM	> 100 µM	64.8 µM	> 100 µM	56 µM	> 100 µM	96.9 µM	> 100 µM	77.5 µM	> 100 µM
Cc1ccc(OCC2CO2)c(Br)c1 (centres undefined)	–	21.2 µM	–	> 100 µM	–	35.8 µM	–	> 100 µM	–	74.9 µM	–	42.6 µM	–	–	–	58.5 µM
